This note sets out measurements from patent US20260224462A1, “ANTI-AGING COMPOSITION” (MITSUBISHI CORPORATION LIFE SCIENCES LIMITED, priority 2023, published 2026).

Holding throughout (type): cell-based
For one assay, the system named is B16 mouse melanoma cells. The assay can be described thus: Melanin production suppression test in cultured cells. The note with it: FIG. 5; for melanin production amount compared with the reference sample (absorbance at 405 nm): 0.02 mM or 0.05 mM at melanin induction with α-MSH 200 nM, p<0.01; for concentration needed for melanin production suppressing effect compared with kojic acid (1 mM) and reduced glutathione (3 mM): 0.02 mM or 0.05 mM of sample. As to the method: B16 mouse melanoma cells were seeded in a 6 well plate (2.0×10^4 cells/well), and cultured for 24 hours in D-MEM medium to which 5% fetal bovine serum was added with respect to the medium (5% CO2, 37° C.). […] The obtained pellets were washed twice with PBS (−), 150 μL of a 1 M sodium hydroxide solution was then added, and the mixture was treated at 100° C. for 10 minutes to dissolve the pellets, thereby preparing a reference sample. […] One hundred μL of a sample of each test section was added to a 96 well plate, and the absorbance at 405 nm was measured with a microplate reader (n=3). […] The significant difference test was performed on the measured value of the reference sample by the Dunnett method (*p<0.05, **p<0.01.).

Assay [1] deals with Normal human fibroblasts. The assay can be described thus: Suppression of decrease in hyaluronic acid production capability due to aging induction, fibroblasts (ELISA). The note with it: 50 μM or 100 μM, 0.5 mM hydrogen peroxide; for amount of hyaluronic acid compared with test section of only aging induction: 24 h, ELISA, p<0.05, FIG. 3; for hyaluronic acid production capability compared with test sections that did not induce aging: no significant difference between the two groups, FIG. 3. As for the experimental part: Normal human fibroblasts were seeded in 24 well plates (8.0×10^4 cells/well, N=3) and precultured for 24 hours (5% CO2, 37° C.). As a medium, MEM-α, nucleosides medium (Gibco) containing fetal bovine serum (10% of serum-free medium was externally added) was used. Thereafter, the wells were washed once with PBS (−), then replaced with MEM-α, nucleoside medium containing fetal bovine serum (5% of serum-free medium was externally added) dissolved so that the final concentration of Sample 1 or Sample 2 was 50 μM or 100 μM, and further incubated for 30 minutes. Thereafter, fibroblasts were treated with a medium adjusted so that the final concentration of hydrogen peroxide was 0.5 mM to induce aging. Thereafter, the culture medium was changed to MEM-α, nucleoside medium containing fetal bovine serum (5% of serum-free culture medium was externally added) and incubated for 24 hours, and then the amount of hyaluronic acid was quantified by ELISA using a hyaluronic acid quantification kit (Cosmo Bio Inc.).
The hyaluronic acid production amount in each test section was shown as a relative value when the hyaluronic acid production amount in each sample and the test section in which aging induction was not performed was taken as 100. Regarding the hyaluronic acid production amount, a significant difference test (t-test, two-tailed) between the two groups of the test section for Sample 1 and the test section for which only the aging induction was performed respectively, and a significant difference test between the test section for Sample 2 and the test section for which only the aging induction was performed were each performed, and “*(p<0.05)” was marked for those in which a significant difference was recognized.
On the technique in general: ELISA stands for enzyme-linked immunosorbent assay.

In assay [2] the test system is Normal human fibroblasts. The assay can be described thus: Suppression of decrease in proliferation capability of aging-induced normal human fibroblasts (MTT assay). The note with it: 50 μM or 100 μM, aging induced with 0.5 mM hydrogen peroxide; compared with only aging induction and with 100 μM reduced glutathione; p<0.005; FIG. 1. As to the method: Normal human fibroblasts were seeded in 96 well plates (3.0×10^3 cells/well, N=3) and precultured for 24 hours (5% CO2, 37° C.). As a medium, MEM-α, nucleosides medium (Gibco) containing fetal bovine serum (10% of serum-free medium was externally added) was used. Thereafter, the wells were washed once with PBS (−), then replaced with MEM-α, nucleoside medium containing fetal bovine serum (5% of serum-free medium was externally added) dissolved so that the final concentration of Sample 1 or Sample 2 was 50 μM or 100 μM, and further incubated for 30 minutes. Thereafter, fibroblasts were treated with a medium adjusted so that the final concentration of hydrogen peroxide was 0.5 mM to induce aging. Thereafter, an MTT assay was performed according to a conventional method, and the survival rate of fibroblasts was calculated as a relative value when the survival rate of cells in the test section in which neither treatment nor aging induction was performed was taken as 100.
For comparison, a test section in which only aging induction was performed and a test section in which reduced glutathione was 100 μM was set instead of Sample 1. […]
Background: Tetrazolium dyes change colour on reduction, which living cells bring about.

Assay [3] relates to Normal human epidermal keratinocytes. The assay can be described thus: Suppression of decrease in proliferation capability of aging-induced normal human epidermal keratinocytes (MTT assay). The note with it: 50 μM or 100 μM, aging induced with 0.5 mM hydrogen peroxide; compared with only aging induction; FIG. 2.
Description: Normal human epidermal keratinocytes were seeded in 96 well plates (1.0×10^4 cells/well, N=3) and precultured for 24 hours (5% CO2, 37° C.). As a medium, a commercially available keratinocyte growth medium (PromoCell) was used. Thereafter, the wells were washed once with PBS (−), then replaced with a keratinocyte growth medium dissolved so that the final concentration of Sample 1 was 50 μM or 100 μM, and further incubated for 30 minutes. […] Thereafter, an MTT assay was performed according to a conventional method, and the survival rate of normal human epidermal keratinocytes was calculated as a relative value when the survival rate of cells in a test section in which neither the treatment with oxidized glutathione trisulfide nor the aging induction was performed was taken as 100. For comparison, a test section in which only aging induction was performed without treatment with oxidized glutathione trisulfide was set. Regarding the survival rate, a significant difference test (t-test, two-tailed) between the two groups of the test section of Sample 1 and the test section in which only aging induction was performed was performed respectively.
For assay [4] the test system is unchanged. The assay can be described thus: Suppression of decrease in hyaluronic acid production capability due to aging induction, keratinocytes (ELISA). The note with it: 50 μM, 0.5 mM hydrogen peroxide. As to the method: Normal human epidermal keratinocytes were seeded in 24 well plates (1.0×10^5 cells/well, N=3) and precultured for 24 hours (5% CO2, 37° C.). As a medium, a commercially available keratinocyte growth medium (PromoCell) was used. Thereafter, the wells were washed once with PBS (−), then replaced with a keratinocyte growth medium dissolved so that the final concentration of Sample 1 was 50 μM, and further incubated for 30 minutes. Thereafter, normal human epidermal keratinocytes were treated with a medium adjusted to have a final concentration of hydrogen peroxide of 0.5 mM to induce aging. Thereafter, the medium was replaced with a new keratinocyte growth medium and incubated for 24 hours, and then the amount of hyaluronic acid was quantified by an ELISA method using a hyaluronic acid quantification kit (Cosmo Bio). For comparison, a test section not treated with oxidized glutathione trisulfide was provided.
The hyaluronic acid production amount in each of the test sections was shown as a relative value when the hyaluronic acid production amount in the test section in which neither oxidized glutathione trisulfide treatment nor aging induction was performed was taken as 100. […]

Assay [5] deals with T1, tyrosinase derived from B16 mouse melanoma cells (Mus musculus, UniProt P11344).
T1 construct: a protein extract containing tyrosinase derived from B16 mouse melanoma cells; endogenous in cells; host or cells: B16 mouse melanoma cells, alpha-MSH induced
T1 sequence (P11344 19-533): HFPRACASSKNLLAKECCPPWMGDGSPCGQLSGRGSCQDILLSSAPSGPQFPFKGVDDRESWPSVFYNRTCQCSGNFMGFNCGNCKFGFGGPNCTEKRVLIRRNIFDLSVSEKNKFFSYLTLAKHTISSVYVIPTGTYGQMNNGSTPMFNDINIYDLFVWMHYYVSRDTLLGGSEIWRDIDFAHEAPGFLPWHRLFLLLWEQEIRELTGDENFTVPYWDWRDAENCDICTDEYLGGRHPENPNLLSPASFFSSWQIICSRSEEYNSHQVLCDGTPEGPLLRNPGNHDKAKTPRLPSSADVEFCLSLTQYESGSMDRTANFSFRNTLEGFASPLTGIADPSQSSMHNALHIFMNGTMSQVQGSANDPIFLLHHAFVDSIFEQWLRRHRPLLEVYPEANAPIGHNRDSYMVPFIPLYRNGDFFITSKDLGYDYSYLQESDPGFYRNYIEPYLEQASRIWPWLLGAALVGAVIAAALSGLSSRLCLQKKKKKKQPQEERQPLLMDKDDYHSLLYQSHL
The assay can be described thus: Tyrosinase activity suppression test. The note with it: 0.05 mM or 0.1 mM at melanin induction; L-DOPA, absorbance at 490 nm corrected by protein concentration; FIG. 6.
Description: The tyrosinase activity inhibitory effect can be known by comparing the value of the absorbance at 490 nm corrected by the protein concentration measured by adding the test substance at the time of melanin induction and the same operation with the value of the test section to which the test substance is not added.
B16 mouse melanoma cells were seeded in a 6 well plate (2.0×10^4 cells/well), and cultured for 24 hours in D-MEM medium to which 5% fetal bovine serum was added with respect to the medium (5% CO2, 37° C.). Thereafter, α-MSH (final concentration: 200 nM) was added, and the cells were cultured in a serum-free D-MEM medium for 24 hours to induce melanin. […] The protein concentration of the obtained sample was measured by the BCA method.
The same operation was performed except that melanin induction was not performed, and a reference sample was obtained. […] Fifty μL of a sample of each test section was placed in a 96 well plate (n=3), 50 μL of 0.8 mg/mL L-DOPA was added, the mixture was reacted at 37° C. for 1 hour, and then the absorbance at 490 nm was measured with a microplate reader. The absorbance was corrected by the protein concentration, and the relative value of each test section was calculated when the measured value of the reference sample was 100. […]

With `CC(=O)N[C@@H](CSSSC[C@H](NC(C)=O)C(=O)O)C(=O)O` [Sample 2, oxidized NAC trisulfide], in the assay with B16 mouse melanoma cells, the “melanin production amount compared with the reference sample (absorbance at 405 nm)” value is recorded as “significantly low”. The “concentration needed for melanin production suppressing effect compared with kojic acid (1 mM) and reduced glutathione (3 mM)” value in the assay on B16 mouse melanoma cells (α-MSH 200 nM) is reported as “melanin production can be suppressed at a lower concentration”. In addition, in the assay on Normal human fibroblasts [1], the “amount of hyaluronic acid compared with test section of only aging induction” value is “significantly higher” and the “hyaluronic acid production capability compared with test sections that did not induce aging” value is recorded as “The same result was obtained”. Also, the “cell proliferation rate (survival rate of fibroblasts, MTT, relative value)” value with Normal human fibroblasts [2] is reported as “significant cell proliferation rate”.
Turning to `N[C@@H](CCC(=O)N[C@@H](CS)C(=O)NCC(=O)O)C(=O)O` [reduced glutathione, reference compound], the “melanin production suppressing effect compared with 0.02 mM test section of Sample 1” value in the assay with B16 mouse melanoma cells (reduced glutathione final concentration 3 mM, α-MSH 200 nM) is reported as “same melanin production suppressing effect”.
With `N[C@@H](CCC(=O)N[C@@H](CSSSC[C@H](NC(=O)CC[C@H](N)C(=O)O)C(=O)NCC(=O)O)C(=O)NCC(=O)O)C(=O)O` [Sample 1, oxidized glutathione trisulfide], the “cell proliferation rate (survival rate of keratinocytes, MTT, relative value)” value in assay [3] was “significant cell proliferation rate”. Besides, the “melanin production amount compared with the reference sample (absorbance at 405 nm)” value with B16 mouse melanoma cells was “significantly low”. Moreover, the “concentration needed for melanin production suppressing effect compared with kojic acid (1 mM) and reduced glutathione (3 mM)” value with B16 mouse melanoma cells (α-MSH 200 nM) is recorded as “exhibited a melanin production suppressing effect at a lower concentration”. Further, in assay [4] (24 h, ELISA, p<0.05, FIG. 4), the “amount of hyaluronic acid compared with test section of only aging induction” value is on record as “significantly higher”. Further, in assay [4] (no significant difference between the two groups, FIG. 4), the “hyaluronic acid production capability compared with control group in which aging is not induced” value was “same hyaluronic acid production capability”. In addition, in the assay with Normal human fibroblasts [1], the “amount of hyaluronic acid compared with test section of only aging induction” value is recorded as “significantly higher” and the “hyaluronic acid production capability compared with test sections that did not induce aging” value is reported as “same hyaluronic acid production capability”. For the same molecule, in assay [5], the “tyrosinase activity compared with test section in which only melanin induction was performed” value is reported as “significantly lower” and the “tyrosinase activity compared with the reference sample (no melanin induction)” value is “same degree of tyrosinase activity as the reference sample”. Also, in the assay with Normal human fibroblasts [2], the “cell proliferation rate (survival rate of fibroblasts, MTT, relative value)” value is reported as “significant cell proliferation rate”.
